Publication PMC6225228, “Design, Synthesis and Evaluation of N-pyrazinylbenzamides as Potential Antimycobacterial Agents” (Molecules : A Journal of Synthetic Chemistry and Natural …, 2018)
In brackets after ≈: the same amount, converted by molar mass. Read-outs that look alike come from different tables or passages of the source.

Experiments:
[1] = tested on: Mycobacterium tuberculosis H37Rv CNCTC My 331/88 (ATCC 27294); test: Antimycobacterial microdilution MABA, M. tuberculosis; format: cell-based; conditions: for MIC: Mycobacterium tuberculosis, read-out: Mtb H37Rv ATCC 27294 MIC, Middlebrook 7H9 with OADC growth supplement, pH = 6.6, MABA
[2] = tested on: M. kansasii CNCTC My 235/80 (ATCC 12478); test: Antimycobacterial microdilution MABA, M. kansasii; format: cell-based, Mycobacterium kansasii; conditions: for MIC: Mycobacterium kansasii, ATCC12478, pH 6.6, read-out: M. kans. ATCC 12478 MIC, Middlebrook 7H9 with OADC, pH 6.6, MABA
[3] = tested on: M. avium ssp. avium CNCTC My 80/72 (ATCC 15769); test: Antimycobacterial microdilution MABA, M. avium; format: cell-based, Mycobacterium avium; conditions: for M. avium ATCC 15769 MIC: Middlebrook 7H9 with OADC, pH 6.6, MABA; for MIC: Mycobacterium avium, ATCC15769, pH 6.6, read-out: M. avium ATCC 15769 MIC
[4] = tested on: Mycobacterium smegmatis CCM 4622 (ATCC 607); test: Antimycobacterial microdilution, M. smegmatis; format: cell-based; conditions: Mycolicibacterium smegmatis, read-out: M. smeg. ATCC 607 MIC
[5] = tested on: Staphylococcus aureus CCM 4516/08; test: Antibacterial microdilution broth, SA; format: cell-based; conditions: Staphylococcus aureus
[6] = tested on: Staphylococcus aureus H 5996/08 methicillin resistant; test: microbe, parasite or virus in culture; format: cell-based; conditions: Staphylococcus aureus, MRSA, read-out: MIC MRSA
[7] = tested on: Staphylococcus epidermidis H 6966/08; test: Antibacterial microdilution broth, SE; format: cell-based; conditions: Staphylococcus epidermidis, read-out: MIC SE
[8] = tested on: Enterococcus sp. J 14365/08; test: Antibacterial microdilution broth, EF; format: cell-based; conditions: Enterococcus, read-out: MIC EF
[9] = tested on: Escherichia coli CCM 4517; test: Antibacterial microdilution broth, EC; format: cell-based; conditions: Escherichia coli, read-out: MIC EC
[10] = tested on: Pseudomonas aeruginosa CCM 1961; test: Antibacterial microdilution broth, PA; format: cell-based; conditions: Pseudomonas aeruginosa, read-out: MIC PA
[11] = tested on: Candida albicans ATCC 44859; test: Antifungal microdilution broth, CA; format: cell-based; conditions: Candida albicans, read-out: MIC CA
Candida tropicalis 156 = test: Antifungal microdilution broth, CT; format: cell-based; conditions: read-out: MIC CT
Candida krusei E28 = test: Antifungal microdilution broth, CK; format: cell-based; conditions: Pichia kudriavzevii, read-out: MIC CK
Candida glabrata 20/I = test: Antifungal microdilution broth, CG; format: cell-based; conditions: Nakaseomyces glabratus, 20/I, read-out: MIC CG
Trichosporon asahii 1188 = test: Antifungal microdilution broth, TA; format: cell-based; conditions: read-out: MIC TA
[12] = tested on: Aspergillus fumigatus 231; test: Antifungal microdilution broth, AF; format: cell-based; conditions: read-out: MIC AF
[13] = tested on: Lichtheimia corymbifera 272; test: Antifungal microdilution broth, LC; format: cell-based; conditions: read-out: MIC LC
[14] = tested on: Trichophyton interdigitale 445; test: Antifungal microdilution broth, TI; format: cell-based; conditions: read-out: MIC TI
[15] = CCM4516, 24 h, read-out: MIC SA, 24 h
[16] = CCM4516, 48 h, read-out: MIC SA, 48 h
[17] = Trichosporon asahii, 1188, 24 h
[18] = Trichosporon asahii, 1188, 48 h
[19] = Aspergillus fumigatus, 231, 24 h
[20] = Aspergillus fumigatus, 231, 48 h
[21] = Lichtheimia corymbifera, 272, 24 h
[22] = Lichtheimia corymbifera, 272, 48 h
[23] = Trichophyton interdigitale, 445, 72 h
[24] = Trichophyton interdigitale, 445, 120 h

Structure (SMILES) | MIC [1] | MIC [2] | M. avium ATCC 15769 MIC [3] | MIC [3] | MIC [4] | MIC [5, 15] | MIC [5, 16] | MIC ([6]; 24 h) | MIC ([6]; 48 h) | MIC ([7]; H6966/08, 24 h) | MIC ([7]; H6966/08, 48 h) | MIC ([8]; SP.J14365/08, 24 h) | MIC ([8]; SP.J14365/08, 48 h) | MIC ([9]; CCM4517, 24 h) | MIC ([9]; CCM4517, 48 h) | MIC ([10]; CCM1961, 72 h) | MIC ([10]; CCM1961, 120 h) | MIC ([11]; ATCC44859, 24 h) | MIC ([11]; ATCC44859, 48 h) | MIC (Candida tropicalis 156; Candida tropicalis, 156, 24 h) | other results
COc1ccc(C(=O)Nc2cnccn2)cc1 [Compound 1g] | 25 µg/mL (≈ 109 µM) | > 100 µg/mL | >100 µg/mL | > 100 µg/mL | ≥ 500 µg/mL | > 500 µM | > 500 µM | > 500 µM | > 500 µM | > 500 µM | > 500 µM | > 500 µM | > 500 µM | > 500 µM | > 500 µM | > 500 µM | > 500 µM | > 500 µM | > 500 µM | > 500 µM | M. kans. ATCC 12478 MIC ([2]; Middlebrook 7H9 with OADC, pH 6.6, MABA): >100 µg/mL; MIC (Candida tropicalis 156; Candida tropicalis, 156, 48 h): > 500 µM; MIC (Candida krusei E28; E28, 24 h): > 500 µM; MIC (Candida krusei E28; E28, 48 h): > 500 µM; MIC (Candida glabrata 20/I; 24 h): > 500 µM; MIC (Candida glabrata 20/I; 48 h): > 500 µM; MIC (Trichosporon asahii 1188; [17]): > 500 µM; MIC (Trichosporon asahii 1188; [18]): > 500 µM; MIC [12, 19]: > 500 µM; MIC [12, 20]: > 500 µM; MIC [13, 21]: > 500 µM; MIC [13, 22]: > 500 µM; MIC [14, 23]: > 500 µM; MIC [14, 24]: > 500 µM; melting point: 156 to 156.6 °C
COc1ccccc1C(=O)Nc1cnccn1 [Compound 1e] | > 100 µg/mL | 100 µg/mL (≈ 436 µM) | >100 µg/mL | > 100 µg/mL | 125 µg/mL (≈ 545 µM) | > 500 µM | > 500 µM | > 500 µM | > 500 µM | > 500 µM | > 500 µM | > 500 µM | > 500 µM | > 500 µM | > 500 µM | > 500 µM | > 500 µM | > 500 µM | > 500 µM | > 500 µM | Mtb H37Rv ATCC 27294 MIC ([1]; Middlebrook 7H9 with OADC growth supplement, pH = 6.6, MABA): >100 µg/mL; MIC (Candida tropicalis 156; Candida tropicalis, 156, 48 h): > 500 µM; MIC (Candida krusei E28; E28, 24 h): > 500 µM; MIC (Candida krusei E28; E28, 48 h): > 500 µM; MIC (Candida glabrata 20/I; 24 h): > 500 µM; MIC (Candida glabrata 20/I; 48 h): > 500 µM; MIC (Trichosporon asahii 1188; [17]): > 500 µM; MIC (Trichosporon asahii 1188; [18]): > 500 µM; MIC [12, 19]: > 500 µM; MIC [12, 20]: > 500 µM; MIC [13, 21]: > 500 µM; MIC [13, 22]: > 500 µM; MIC [14, 23]: > 500 µM; MIC [14, 24]: > 500 µM; melting point: 100.3 to 102.4 °C
